# According to PMC5626944 (Frontiers in Pharmacology, 2017):
# Where two headings read alike, the source gives them in different places.
# Legend:
# [1] = 0.2 mg/kg ip; for [TC299423] in assay: brain; for Blood measurements: [TC299423]: serum
# Protocol: Uninjected mice served as controls (n = 3 for each group). Trunk blood was collected into heparinized 1.5 mL polyethylene tubes. The tubes were centrifuged and the serum was collected. […] The cerebral cortex was dissected, placed in 1 mL of cold water, homogenized, and diluted to 3 mL with cold water. Epibatidine saturation curves were constructed for the cortical samples using eight concentrations of [^125I]epibatidine measured in triplicate (6, 12, 25, 50, 100, 200, 400, and 800 pM). The final assay volume was […] 50 μL of homogenate was added to each sample. Blanks included 100 μM nicotine. Samples were incubated at room temperature overnight. The samples were filtered, washed and counted. Inhibition of [^125I]epibatidine (325 pM) binding was measured by adding 1, 2, 5, 10, or 20 μL of serum to samples. The washed, particulate fraction from C57BL/6 cortex was the source of the binding sites.
# male Wistar rats [2] = experiment: Rat intravenous nicotine self-administration; assay type: in vivo; details: 0.01, 0.025, 0.05, 0.08 mg/kg ip, 20 min before session; nicotine 0.03 mg/kg/inf
# Description: (§1) Operant chambers (Med Associates, East Fairfield, VT, United States) were used for food delivery and the intravenous self-administration (IVSA) of nicotine.
# (§2) For IV catheter implantation, the rats were anesthetized using 1–3% isoflurane inhalation in oxygen and surgically prepared with catheters in the left jugular vein ([Kenny et al., 2008]). The catheter was passed subcutaneously to a polyethylene assembly mounted on the animals’ back. Prior to training, rats were food-restricted so that their body weight was approximately ∼85% that of free-feeding rats. They were then trained to press an active lever for 45 mg food pellets on a fixed ratio 5 time-out 20 s (FR5TO20) schedule of reinforcement. […] Pressing this lever was recorded but was not associated with scheduled consequence. Rats were permitted to respond for food rewards until a reliable response was achieved, defined as >90 pellets earned per 1 h session for three consecutive sessions. Rats were then permitted to respond for food (n = 8) or for nicotine infusions (n = 9) during 1 h daily sessions under the FR5TO20 schedule. […]
# (§3) Twenty min after injection, rats were placed in the operant boxes and responding for food rewards or nicotine infusions was recorded. […]
# male Wistar rats [3] = experiment: Rat responding for food rewards; assay type: in vivo; details: 0.01, 0.025, 0.05, 0.08 mg/kg ip, 20 min before session
# Description: as §1, §2, §3
# WT mice [4] = experiment: Hot plate assay; assay type: in vivo, mouse; details: 0.3 mg/kg ip each, 55°C hot plate, p < 0.05
# Protocol: Mice were again habituated to the experimental room for ≥2 h prior to testing. […] This apparatus is a heated metal plate, maintained at 55°C, enclosed by a clear acrylic plastic cylinder (∼10 cm in diameter), within which the mouse is free to move. […] If the mouse urinates during the assay, it is immediately removed from the hot plate. The time that the mouse remains on the hot plate prior to showing signs of discomfort is recorded. Doses were administered using a Latin-square crossover design. A day without testing occurred between each test.
# WT mice [5] = experiment: Marble burying assay; assay type: in vivo, mouse; details: 0.3 mg/kg ip
# [6] = tested on: T1, Adenosine Transporter (h); experiment: NovaScreen competition binding; design: species or system human; details: 1 µM
# T1 construct: PerkinElmer – Caliper Life Sciences (NovaScreen service)
# Adenosine, A2A (h) = tested on: T2, Adenosine, A2A (h); experiment: NovaScreen competition binding; design: species or system human; details: 1 µM
# T2 construct: PerkinElmer – Caliper Life Sciences (NovaScreen service)
# Adrenergic, Alpha 1A = tested on: T3, Adrenergic, Alpha 1A; experiment: NovaScreen competition binding; details: 1 µM
# T3 construct: PerkinElmer – Caliper Life Sciences (NovaScreen service)
# Dopamine Transporter = experiment: NovaScreen competition binding; details: 1 µM
# Dopamine, D2s (h) = experiment: NovaScreen competition binding; design: species or system human; details: 1 µM
# [7] = target: Glutamate,NMDA,Glycine (Stry-insens Site) (Ionot (Rattus norvegicus, UniProt P35439)); experiment: NovaScreen competition binding
# Chain of Glutamate,NMDA,Glycine (Stry-insens Site) (Ionot (P35439 394-863 limits assumed): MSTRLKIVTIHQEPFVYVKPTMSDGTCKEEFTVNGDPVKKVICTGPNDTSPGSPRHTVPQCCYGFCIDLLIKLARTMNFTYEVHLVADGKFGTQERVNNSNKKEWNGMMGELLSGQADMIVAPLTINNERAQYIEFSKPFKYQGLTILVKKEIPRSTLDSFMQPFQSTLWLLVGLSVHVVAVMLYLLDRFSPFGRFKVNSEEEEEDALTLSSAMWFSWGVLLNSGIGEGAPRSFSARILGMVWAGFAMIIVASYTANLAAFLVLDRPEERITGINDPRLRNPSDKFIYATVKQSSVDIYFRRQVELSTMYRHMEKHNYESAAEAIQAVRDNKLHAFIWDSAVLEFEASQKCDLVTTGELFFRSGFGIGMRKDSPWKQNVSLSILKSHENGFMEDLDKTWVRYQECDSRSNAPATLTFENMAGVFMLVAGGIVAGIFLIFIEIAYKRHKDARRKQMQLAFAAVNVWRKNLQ
# Histamine, H3 = experiment: NovaScreen competition binding; details: 1 µM
# Serotonin, 5HT1A (h) = experiment: NovaScreen competition binding; design: species or system human; details: 1 µM
# Serotonin, 5HT2C = experiment: NovaScreen competition binding; details: 1 µM
# Serotonin, 5HT5A (h) = experiment: NovaScreen competition binding; design: species or system human; details: 1 µM
# Serotonin, 5HT7 (h) = experiment: NovaScreen competition binding; design: species or system human; details: 1 µM
# [8] = tested on: Potassium Channel, Ca2+ Act., VI; experiment: NovaScreen competition binding; details: 1 µM
# Bradykinin, BK2 = tested on: T4, Bradykinin, BK2; experiment: NovaScreen competition binding; details: 1 µM
# T4 construct: PerkinElmer – Caliper Life Sciences (NovaScreen service)
# Neurokinin, NK1 = experiment: NovaScreen competition binding; details: 1 µM
# Esterase, Acetylcholine = experiment: NovaScreen enzyme assay; assay type: biochemical; details: 1 µM
# Kinase, Protein, PKA (h) = tested on: T5, Kinase, Protein, PKA (h); experiment: NovaScreen enzyme assay; assay type: biochemical, human; details: 1 µM
# T5 construct: PerkinElmer – Caliper Life Sciences (NovaScreen service)
smiles,measurement,setting,value
"C1=C(/c2cncnc2)CCCNCC/1 [TC299423, (E)-5-(pyrimidin-5-yl)-1,2,3,4,7,8-hexahydroazocine]",Duration of brain penetration and availability to nAChRs,[1],≥ 20 min
same,[TC299423] in brain,[1]; 5 min,45 ± 25 pmol/mg
same,[TC299423] in brain,[1]; 10 min,88 ± 18 pmol/mg
same,[TC299423] in brain,[1]; 20 min,73 ± 4.0 pmol/mg
same,[TC299423] in assay,[1]; 5 min,2.2 ± 1.1 nM
same,[TC299423] in assay,[1]; 10 min,4.4 ± 0.9 nM
same,[TC299423] in assay,[1]; 20 min,3.7 ± 0.2 nM
same,Blood measurements: [TC299423],[1]; 5 min,250 ± 50 nM
same,Blood measurements: [TC299423],[1]; 10 min,370 ± 70 nM
same,Blood measurements: [TC299423],[1]; 20 min,120 ± 30 nM
same,Responding for nicotine infusions vs vehicle,male Wistar rats [2],no statistically significant changes
same,Responding for food pellets vs vehicle,male Wistar rats [3],no statistically significant changes
same,Antinociceptive effect compared with varenicline,WT mice [4],significantly greater than that of varenicline
same,Marbles buried compared with saline,WT mice [5],significantly fewer marbles
same,Marbles buried compared with varenicline,WT mice [5]; p < 0.001,fewer marbles
same,Hit,[6],FALSE
same,Inhibition,[6]; [3H]-NBTI,12.86%
same,Hit,"Adenosine, A2A (h)",FALSE
same,Inhibition,"Adenosine, A2A (h); [3H]CGS 21680",1.51%
same,Hit,"Adrenergic, Alpha 1A",FALSE
same,Inhibition,"Adrenergic, Alpha 1A; [3H]-7-MeOxy-Prazosin",-0.05%
same,Hit,Dopamine Transporter,FALSE
same,Inhibition,"Dopamine Transporter; [3H]WIN 35,428",-5.87%
same,Hit,"Dopamine, D2s (h)",FALSE
same,Inhibition,"Dopamine, D2s (h); [3H]-Raclopride",-21.17%
same,Hit,[7]; 1 µM,FALSE
same,inhibition at 1 µM,"[7]; [3H]-MDL-105,519",4.34%
same,Hit,"Histamine, H3",FALSE
same,Inhibition,"Histamine, H3; [3H]N-a-MeHistamine",5.85%
same,Hit,"Serotonin, 5HT1A (h)",FALSE
same,Inhibition,"Serotonin, 5HT1A (h); [3H]-8-OH-DPAT",17.60%
same,Hit,"Serotonin, 5HT2C",FALSE
same,Inhibition,"Serotonin, 5HT2C; [3H]Mesulergine",-2.21%
same,Hit,"Serotonin, 5HT5A (h)",FALSE
same,Inhibition,"Serotonin, 5HT5A (h); [3H]-LSD",1.24%
same,Hit,"Serotonin, 5HT7 (h)",FALSE
same,Inhibition,"Serotonin, 5HT7 (h); [3H]LSD",-2.10%
same,Hit,[8],FALSE
same,Inhibition,[8]; [125I]Apamin,-2.57%
same,Hit,"Bradykinin, BK2",FALSE
same,Inhibition,"Bradykinin, BK2; [3H]Bradykinin",32.29%
same,Hit,"Neurokinin, NK1",FALSE
same,Inhibition,"Neurokinin, NK1; [3H]Substance P",2.10%
same,Hit,"Esterase, Acetylcholine",FALSE
same,Inhibition,"Esterase, Acetylcholine; substrate Acetylthiocholine",21.55%
same,Hit,"Kinase, Protein, PKA (h)",FALSE
same,Inhibition,"Kinase, Protein, PKA (h); substrate Fluorescein-labeled peptide",-5.00%
